Measured values published in patent US9416142B2, “Griseofulvin derivatives” (PIERRE FABRE MEDICAMENT, priority 2012, dated 2016).

Legend:
Assay type in all cases: cell-based
[1] = system: HCC1937 (primary ductal breast carcinoma cell line); test: Cytotoxic activity, cell proliferation (ATPLite) on HCC1937 line; details: Homo sapiens, 48 hours after treatment
Method: (§1) Culture of Lines and Measurement of Cell Viability:
(§2) The lines NIE115 (ATCC, CRL2263), MDA-MB-231 (ATCC, HTB26) and HSC-1 (Health Science Research Resources Bank, JCRB1015) were cultured in DMEM medium (Dulbecco's modified Eagle medium) supplemented with 2 mM of L-Glutamine (Sigma, G7513) and 10% foetal calf serum (Hyclone, SH30109.03) or 20% for the HSC-1 cells. The HCC-1937 (ATCC, CRL2336) and A549 (ATCC, CCL185) lines were cultured in RPMI medium (Roswell Park Memorial Institute medium) supplemented with 10% foetal calf serum and 2 mM of L-Glutamine. Finally, the SCC114 line (DSMZ, ACC662) was cultured in MEM medium (Minimum Essential Medium Eagle) supplemented with 10% foetal calf serum and 2 mM of L-Glutamine. Initially, in 96-well plates (Perkin Elmer, 6005668), the cells were seeded in their respective culture media with 750 cells per well for NIE115; 1000 cells per well for SCC114 and A549; 2000 cells per well for HCC-1937 and HSC-1; 2500 cells per well for MDA-MB-231. Cascade dilution of each compound was performed in dimethylsulfoxide (DMSO) (Sigma, D8418) using 10 mM stock solutions in 100% DMSO. Each of the dilutions was added to the cells 24 hours after seeding. Under these conditions the final solvent concentration was 0.1% DMSO. Reading of cell proliferation was conducted 72 hours after addition of products with the ATPLite kit (Perkin Elmer, 6016947) and following the manufacturer's directions except in the case of the HCC-1937 line for which this reading was carried out 48 hours after treatment. Analysis of proliferation results was performed by comparing with conditions in which solely the vehicle was added to the cells. The dose-response curves obtained were analysed using Prism 4.03 software (GraphPad Software Inc.) to determine the concentration of each compound allowing 50% inhibition of cell proliferation (IC50). As examples, the cytotoxic properties of some compounds of the invention evaluated on the lines A549 (lung cancer cell line), MDA-MB-231 (mammary adenocarcinoma cell line), NIE115 (mouse brain neuroblastoma cell line), HCC-1937 1 (primary ductal breast carcinoma cell line), HSC-1 (cutaneous squamous carcinoma cell line) and SCC114 (oral squamous carcinoma cell line) are reported in Table 1, as compared with griseofulvin used as control product. The concentration values are expressed in micromolar units (μM).
The activity of the compounds of the invention on the […] line was compared with that of known cytotoxics (Epotilone B and Vinflunine).

[2] = system: A549 (lung cancer cell line); test: Cytotoxic activity, cell proliferation (ATPLite) on A549 line; details: Homo sapiens, 50% inhibition of cell proliferation, 72 hours after addition
Method: as §1
as §2, with “Analysis of proliferation results was performed by comparing with conditions in which solely the vehicle was added to the cells. The dose-response curves obtained were analysed using Prism 4.03 software (GraphPad Software Inc.) to determine the concentration of each compound allowing 50% inhibition of cell proliferation (IC50).” left out, “The concentration values are expressed in micromolar units (μM).” left out

[3] = system: N1E-115 (mouse brain neuroblastoma cell line); test: Cytotoxic activity, cell proliferation (ATPLite) on N1E-115 line; details: 50% inhibition of cell proliferation, 72 hours after addition
Method: as §1
as §2, with “Analysis of proliferation results was performed by comparing with conditions in which solely the vehicle was added to the cells. The dose-response curves obtained were analysed using Prism 4.03 software (GraphPad Software Inc.) to determine the concentration of each compound allowing 50% inhibition of cell proliferation (IC50).” left out, “The concentration values are expressed in micromolar units (μM).” left out

[4] = system: MDA-MB-231 (mammary adenocarcinoma cell line); test: Cytotoxic activity, cell proliferation (ATPLite) on MDA-MB-231 line; details: Homo sapiens, 50% inhibition of cell proliferation, 72 hours after addition
Method: as §1
as §2, with “Analysis of proliferation results was performed by comparing with conditions in which solely the vehicle was added to the cells. The dose-response curves obtained were analysed using Prism 4.03 software (GraphPad Software Inc.) to determine the concentration of each compound allowing 50% inhibition of cell proliferation (IC50).” left out, “The concentration values are expressed in micromolar units (μM).” left out

[5] = system: SCC114 (oral squamous carcinoma cell line); test: Cytotoxic activity, cell proliferation (ATPLite) on SCC114 line; details: 50% inhibition of cell proliferation, 72 hours after addition
Method: as §1, §2

[6] = system: HSC-1 (cutaneous squamous carcinoma cell line); test: Cytotoxic activity, cell proliferation (ATPLite) on HSC-1 line; details: 50% inhibition of cell proliferation, 72 hours after addition
Method: as §1
The lines NIE115 (ATCC, CRL2263), MDA-MB-231 (ATCC, HTB26) and HSC-1 (Health Science Research Resources Bank, JCRB1015) were cultured in DMEM medium (Dulbecco's modified Eagle medium) supplemented with 2 mM of L-Glutamine (Sigma, G7513) and 10% foetal calf serum (Hyclone, SH30109.03) or 20% for the HSC-1 cells. The HCC-1937 (ATCC, CRL2336) and A549 (ATCC, CCL185) lines were cultured in RPMI medium (Roswell Park Memorial Institute medium) supplemented with 10% foetal calf serum and 2 mM of L-Glutamine. […] Reading of cell proliferation was conducted 72 hours after addition of products with the ATPLite kit (Perkin Elmer, 6016947) and following the manufacturer's directions except in the case of the HCC-1937 line for which this reading was carried out 48 hours after treatment. […] As examples, the cytotoxic properties of some compounds of the invention evaluated on the lines A549 (lung cancer cell line), MDA-MB-231 (mammary adenocarcinoma cell line), NIE115 (mouse brain neuroblastoma cell line), HCC-1937 1 (primary ductal breast carcinoma cell line), HSC-1 (cutaneous squamous carcinoma cell line) and SCC114 (oral squamous carcinoma cell line) are reported in Table 1, as compared with griseofulvin used as control product. […]

[7] = Table 2, comparison with known cytotoxics and 2′-SR7 compounds
[8] = Table 1, 50% inhibition of cell proliferation

SMILES	IC50 [1, 7]	IC50 [1, 8]	IC50 [5]	further results
C/C(=C\c1csc(C)n1)[C@@H]1C[C@@H]2O[C@]2(C)CCC[C@H](C)[C@H](O)[C@@H](C)C(=O)C(C)(C)[C@@H](O)CC(=O)O1 [Epotilone B, reference compound]	> 10 µM	–	–	–
CC[C@]12C=CCN3CC[C@@]4(c5cc([C@@]6(C(=O)OC)C[C@@H]7C[C@@H](C(C)(F)F)CN(Cc8c6[nH]c6ccccc86)C7)c(OC)cc5N(C)[C@H]4[C@@](O)(C(=O)OC)[C@@H]1OC(C)=O)[C@@H]32 [Vinflunine, reference compound]	> 10 µM	–	–	–
COc1cc(OC)c2c(c1Cl)O[C@@]1(C=C(S(=O)(=O)Cc3ccccc3)C(=O)C[C@H]1C)C2=O [Compound 96, (1′S,6′R)-3′-(benzylsulfonyl)-7-chloro-4,6-dimethoxy-6′-methyl-3H-spiro[benzofuran-2,1′-cyclohex[2]ene]-3,4′-dione]	–	0.92 µM	–	–
COc1cc(OC)c2c(c1Cl)OC1(C2=O)C(SCc2ccccc2)=CC(=O)C[C@H]1C (some centres unmarked) [A, reference compound]	> 10 µM	–	–	–
COc1cc(OC)c2c(c1Cl)O[C@@]1(C=C([S+]([O-])c3ccccc3)C(=O)C[C@H]1C)C2=O (some centres unmarked) [Compound 95]	–	0.43 µM	0.25 µM	IC50 [2]: 0.25 µM; IC50 [3]: 1 µM; IC50 [4]: 0.54 µM
COc1cc(OC)c2c(c1Cl)O[C@]1(C2=O)C(S(=O)(=O)Cc2ccccc2)=CC(=O)C[C@H]1C [Compound 145, (1′R,6′R)-2′-(benzylsulfonyl)-7-chloro-4,6-dimethoxy-6′-methyl-3H-spiro[benzofuran-2,1′-cyclohex[2]ene]-3,4′-dione]	–	1.4 µM	0.385 µM	IC50 [2]: 1.5 µM; IC50 [3]: 3 µM; IC50 [4]: 2 µM
COc1cc(OC)c2c(c1Cl)O[C@]1(C2=O)C(S(=O)(=O)CCN(C)C)=CC(=O)C[C@H]1C [Compound 146, (1′R,6′R)-7-chloro-2′-(2-(dimethylamino)ethylsulfonyl)-4,6-dimethoxy-6′-methyl-3H-spiro[benzofuran-2,1′-cyclohex[2]ene]-3,4′-dione]	–	5.9 µM	–	–
COc1cc(OC)c2c(c1Cl)O[C@]1(C2=O)C(S(=O)(=O)c2ccccc2)=CC(=O)C[C@H]1C [Compound 147, (1′R,6′R)-7-chloro-4,6-dimethoxy-6′-methyl-2′-(phenylsulfonyl)-3H-spiro[benzofuran-2,1′-cyclohex[2]ene]-3,4′-dione]	–	1.6 µM	–	–
COC1=CC(=O)C[C@@H](C)[C@]12Oc1c(Cl)c(OC)cc(OC)c1C2=O [Griseofulvin]	–	> 10 µM	6.4 µM	IC50 [2]: > 10 µM; IC50 [3]: > 10 µM; IC50 [4]: > 10 µM; IC50 [6]: > 10 µM
COc1cc(OC)c2c(c1Cl)O[C@]1(C2=O)C(SCCN(C)C)=CC(=O)C[C@H]1C (racemic) [B, reference compound]	> 10 µM	–	–	–
COc1cc(OC)c2c(c1Cl)O[C@@]1(C=C(S(=O)(=O)c3ccccc3)C(=O)C[C@H]1C)C2=O [Compound 98, (1′S,6′R)-7-chloro-4,6-dimethoxy-6′-methyl-3′-(phenylsulfonyl)-3H-spiro[benzofuran-2,1′-cyclohex[2]ene]-3,4′-dione]	–	0.7 µM	0.41 µM	–
COc1cc(OC)c2c(c1Cl)O[C@@]1(C=C([S+]([O-])Cc3ccccc3)C(=O)C[C@H]1C)C2=O (stereo partly drawn) [Compound 97, (1′S,6′R)-3′-(benzylsulfinyl)-7-chloro-4,6-dimethoxy-6′-methyl-3H-spiro[benzofuran-2,1′-cyclohex[2]ene]-3,4′-dione]	–	–	0.021 µM	–
